How the values were obtained:
Homo sapiens [1] = organism: Homo sapiens; experiment: Anti-proliferative activity on normal human dermal fibroblasts (NHDF) induced by fetal bovine serum (FBS) at 0.1 uM concentration; assay type: functional
HUVEC [2] = experiment: Anti-proliferative effect on human umbilical vein endothelial cells (HUVEC) induced by ECGS at 0 uM concentration by measuring [3H]thymidine incorporation; assay type: functional
Homo sapiens [3] = organism: Homo sapiens; experiment: Anti-proliferative activity of normal human dermal fibroblasts (NHDF) induced by fetal bovine serum (FBS) at 0.3 uM concentration; assay type: functional
[4] = Anti-proliferative activity of KB cells from head and neck cancer cell line induced by fetal bovine serum (FBS) at 1 (uM) concentration for % inhibition; assay type: functional, Homo sapiens, Cancer cell lines
HUVEC [5] = experiment: Anti-proliferative effect on human umbilical vein endothelial cells (HUVEC) induced by endothelial cell growth supplement (ECGS) at 1 (uM) concentration; assay type: functional
Homo sapiens [6] = organism: Homo sapiens; experiment: Anti-proliferative activity on NHDF induced by fetal bovine serum (FBS) at 0.3 uM concentration by measuring [3H]thymidine incorporation; assay type: functional
[7] = Anti-proliferative activity of KB cells from head and neck cancer cell line induced by fetal bovine serum (FBS) at 0.3 (uM) concentrations for % inhibition; assay type: functional, Homo sapiens, Cancer cell lines
HUVEC [8] = experiment: Anti-proliferative effect on HUVEC induced by fetal bovine serum (FBS) at 0 uM concentration by measuring [3H]thymidine incorporation; assay type: functional, Homo sapiens
Mus musculus [9] = experiment: Antirheumatic effect was determined in mice after oral administration of a dose of 30 mg/kg/day at day 14; assay type: functional; conditions: 336 h
Homo sapiens [10] = organism: Homo sapiens; experiment: Anti-proliferative activity on normal human dermal fibroblasts (NHDF) induced by fetal bovine serum (FBS) at 1 uM concentration; assay type: functional
HUVEC [11] = experiment: Anti-proliferative effect on HUVEC induced by fetal bovine serum (FBS) at 0.1 uM concentration by measuring [3H]thymidine incorporation; assay type: functional, Homo sapiens
HUVEC [12] = experiment: Anti-proliferative effect on HUVEC induced by fetal bovine serum (FBS) at 0.3 uM concentration by measuring [3H]thymidine incorporation; assay type: functional, Homo sapiens
HUVEC [13] = experiment: Anti-proliferative effect on human umbilical vein endothelial cells (HUVEC) induced by fetal bovine serum (FBS) at 0.3 (uM) concentration; assay type: functional
[14] = Anti-proliferative activity of KB cells from head and neck cancer cell line induced by fetal bovine serum (FBS) at 0.3 (uM) concentrations for [3H]- thymidine incorporation; assay type: functional, Homo sapiens, Cancer cell lines
HUVEC [15] = experiment: Anti-proliferative effect on human umbilical vein endothelial cells (HUVEC) induced by endothelial cell growth supplement (ECGS) at 0.3 (uM) concentration; assay type: functional
[16] = Anti-proliferative activity of KB cells from head and neck cancer cell line induced by fetal bovine serum (FBS) at 0.1 (uM) concentrations for % inhibition; assay type: functional, Homo sapiens, Cancer cell lines
[17] = Anti-proliferative activity of KB cells from head and neck cancer cell line induced by fetal bovine serum (FBS) at 0.1 (uM) concentrations for [3H]- thymidine incorporation; assay type: functional, Homo sapiens, Cancer cell lines
Homo sapiens [18] = organism: Homo sapiens; experiment: Anti-proliferative activity on NHDF induced by fetal bovine serum (FBS) at 1 uM concentration by measuring [3H]thymidine incorporation; assay type: functional
HUVEC [19] = experiment: Anti-proliferative effect on human umbilical vein endothelial cells (HUVEC) induced by basic fibroblast growth factor (bFGF); assay type: functional, cell-based
HUVEC [20] = experiment: Anti-proliferative effect on HUVEC induced by vascular endothelial growth factor (VEGF)at 0.3 uM concentration by measuring [3H]thymidine incorporation; assay type: functional, Homo sapiens
[21] = Anti-proliferative activity of KB cells from head and neck cancer cell line induced by fetal bovine serum (FBS) at 1 (uM) concentrations for [3H]- thymidine incorporation; assay type: functional, Homo sapiens, Cancer cell lines
HUVEC [22] = experiment: Anti-proliferative effect on HUVEC induced by vascular endothelial growth factor (VEGF)at 0.1 uM concentration by measuring [3H]thymidine incorporation; assay type: functional, Homo sapiens
HUVEC [23] = experiment: Anti-proliferative effect on HUVEC induced by fetal bovine serum (FBS) at 1 uM concentration by measuring [3H]-thymidine incorporation; assay type: functional, Homo sapiens
HUVEC [24] = experiment: Anti-proliferative effect on HUVEC induced by vascular endothelial growth factor (VEGF)at 1 uM concentration by measuring [3H]thymidine incorporation; assay type: functional, Homo sapiens
HUVEC [25] = experiment: Anti-proliferative effect on human umbilical vein endothelial cells (HUVEC) induced by ECGS at 0.3 uM concentration by measuring [3H]thymidine incorporation; assay type: functional
HUVEC [26] = experiment: Anti-proliferative effect on human umbilical vein endothelial cells (HUVEC) induced by vascular endothelial growth factor (VEGF) at 1 (uM) concentration; assay type: functional
HUVEC [27] = experiment: Anti-proliferative effect on human umbilical vein endothelial cells (HUVEC) induced by fetal bovine serum (FBS) at 0.1 (uM) concentration; assay type: functional
HUVEC [28] = experiment: Anti-proliferative effect on human umbilical vein endothelial cells (HUVEC) induced by ECGS at 0.1 uM concentration by measuring [3H]thymidine incorporation; assay type: functional
HUVEC [29] = experiment: Anti-proliferative effect on human umbilical vein endothelial cells (HUVEC) induced by basic fibroblast growth factor (bFGF) at 0.1 (uM) concentration; assay type: functional
HUVEC [30] = experiment: Anti-proliferative effect on HUVEC induced by basic fibroblast growth factor (bFGF)at 0 uM concentration by measuring [3H]thymidine incorporation; assay type: functional, Homo sapiens
HUVEC [31] = experiment: Anti-proliferative effect on human umbilical vein endothelial cells (HUVEC) induced by vascular endothelial growth factor (VEGF); assay type: functional, cell-based
HUVEC [32] = experiment: Anti-proliferative effect on HUVEC induced by vascular endothelial growth factor (VEGF)at 0 uM concentration by measuring [3H]thymidine incorporation; assay type: functional, Homo sapiens
Homo sapiens [33] = organism: Homo sapiens; experiment: Anti-proliferative activity on NHDF induced by fetal bovine serum (FBS) at 0 uM concentration by measuring [3H]thymidine incorporation; assay type: functional
HUVEC [34] = experiment: Anti-proliferative effect on human umbilical vein endothelial cells (HUVEC) induced by vascular endothelial growth factor (VEGF) at 0.1 (uM) concentration; assay type: functional
HUVEC [35] = experiment: Anti-proliferative effect on HUVEC induced by basic fibroblast growth factor (bFGF)at 0.3 uM concentration by measuring [3H]thymidine incorporation; assay type: functional, Homo sapiens
HUVEC [36] = experiment: Anti-proliferative effect on human umbilical vein endothelial cells (HUVEC) induced by basic fibroblast growth factor (bFGF) at 0.3 (uM) concentration; assay type: functional
HUVEC [37] = experiment: Anti-proliferative effect on HUVEC induced by basic fibroblast growth factor (bFGF)at 0.1 uM concentration by measuring [3H]thymidine incorporation; assay type: functional, Homo sapiens
Homo sapiens [38] = organism: Homo sapiens; experiment: Anti-proliferative activity on NHDF induced by fetal bovine serum (FBS) at 0.1 uM concentration by measuring [3H]thymidine incorporation; assay type: functional
[39] = Anti-proliferative activity of KB cells from head and neck cancer cell line induced by fetal bovine serum (FBS) at 0 uM concentrations for [3H]thymidine incorporation; assay type: functional, Homo sapiens, Cancer cell lines
HUVEC [40] = experiment: Anti-proliferative effect on human umbilical vein endothelial cells (HUVEC) induced by vascular endothelial growth factor (VEGF) at 0.3 (uM) concentration; assay type: functional
HUVEC [41] = experiment: Anti-proliferative effect on human umbilical vein endothelial cells (HUVEC) induced by basic fibroblast growth factor (bFGF) at 1 (uM) concentration; assay type: functional
HUVEC [42] = experiment: Anti-proliferative effect on human umbilical vein endothelial cells (HUVEC) induced by endothelial cell growth supplement (ECGS); assay type: functional, cell-based
HUVEC [43] = experiment: Anti-proliferative effect on human umbilical vein endothelial cells (HUVEC) induced by fetal bovine serum (FBS) at 1 uM concentration; assay type: functional
HUVEC [44] = experiment: Anti-proliferative effect on human umbilical vein endothelial cells (HUVEC) induced by ECGS at 1 uM concentration by measuring [3H]thymidine incorporation; assay type: functional
HUVEC [45] = experiment: Anti-proliferative effect on human umbilical vein endothelial cells (HUVEC) induced by fetal bovine serum (FBS); assay type: functional, cell-based
HUVEC [46] = experiment: Anti-proliferative effect on HUVEC induced by basic fibroblast growth factor (bFGF)at 1 uM concentration by measuring [3H]thymidine incorporation; assay type: functional, Homo sapiens
Mus musculus [47] = experiment: Antirheumatic effect was determined in mice after oral administration of a dose of 1 mg/kg/day at day 14; assay type: functional; conditions: 336 h
Mus musculus [48] = experiment: Antirheumatic effect was determined in mice after combined treatment of TAS-202 (30 mg/kg/day) and indomethacin (1 mg/kg/day) at day 14; assay type: functional

## CCN(CC)c1nc(-c2cc(OC)c(OC)c(OC)c2)cc(-c2cc(OC)c(OC)cc2OC)n1
Homo sapiens [1]
  inhibition at 0.1 µM: -2.2%
HUVEC [2]
  Activity: 2810.3 c.p.m.
Homo sapiens [3]
  inhibition at 0.3 µM: -18.4%
[4]
  Inhibition: 29.3%
HUVEC [5]
  Inhibition: 87.2%
Homo sapiens [6]
  Activity: 2209.9 c.p.m.
[7]
  Inhibition: 16.5%
HUVEC [8]
  Activity: 595.9 c.p.m.
Mus musculus [9]
  inhibition in vivo at 30 mg/kg/day: 32.4%
Homo sapiens [10]
  inhibition at 1 µM: -14.3%
HUVEC [11]
  Activity: 437 c.p.m.
HUVEC [12]
  Activity: 154.2 c.p.m.
HUVEC [13]
  Inhibition: 74.1%
[14]
  Activity: 15784.2 c.p.m.
HUVEC [15]
  Inhibition: 64.6%
[16]
  Inhibition: -0.3%
[17]
  Activity: 18961.2 c.p.m.
Homo sapiens [18]
  Activity: 2133.2 c.p.m.
HUVEC [19]
  IC50: 0.561 µM
HUVEC [20]
  Activity: 1263.7 c.p.m.
[21]
  Activity: 13366.5 c.p.m.
HUVEC [22]
  Activity: 1861.3 c.p.m.
HUVEC [23]
  Activity: 122.8 c.p.m.
HUVEC [24]
  Activity: 448 c.p.m.
HUVEC [25]
  Activity: 994.2 c.p.m.
HUVEC [26]
  Inhibition: 78.4%
HUVEC [27]
  Inhibition: 26.7%
HUVEC [28]
  Activity: 1634.5 c.p.m.
  inhibition at 0.1 µM: 41.8%
HUVEC [29]
  Inhibition: 33.6%
HUVEC [30]
  Activity: 9998.4 c.p.m.
HUVEC [31]
  IC50: 0.398 µM
HUVEC [32]
  Activity: 2077.3 c.p.m.
Homo sapiens [33]
  Activity: 1867.1 c.p.m.
HUVEC [34]
  Inhibition: 10.4%
HUVEC [35]
  Activity: 6927.6 c.p.m.
HUVEC [36]
  Inhibition: 30.7%
HUVEC [37]
  Activity: 6638.9 c.p.m.
Homo sapiens [38]
  Activity: 1907.7 c.p.m.
[39]
  Activity: 18896 c.p.m.
HUVEC [40]
  Inhibition: 39.2%
HUVEC [41]
  Inhibition: 70.3%
HUVEC [42]
  IC50: 0.148 µM
HUVEC [43]
  inhibition at 1 µM: 79.4%
HUVEC [44]
  Activity: 359 c.p.m.
HUVEC [45]
  IC50: 0.199 µM
HUVEC [46]
  Activity: 2969.9 c.p.m.

## COc1ccc2c(c1)c(CC(=O)O)c(C)n2C(=O)c1ccc(Cl)cc1 [INDOMETHACIN]
Mus musculus [47]
  inhibition in vivo at 1 mg/kg/day: 22.2%
Mus musculus [48]
  Inhibition: 75%
